Tests used:
FRDA lymphocytes [1] = test: Cytotoxicity assay in FRDA lymphocytes cultured in glucose free media (galactose), Live/Dead flow cytometry; type: cell-based; details: FRDA lymphocytes, galactose as sole sugar source, 24 h or 48 h incubation (FIG. 2)
Description: Flow cytometric determination of cell viability by fluorescence labeling was used employing calcein acetoxy-methyl-ester and ethidium homodimer-1 as live and dead cell stains
Cytotoxicity was assessed by the dye exclusion method. Live cells have intact membranes, which exclude a variety of dyes that easily penetrate the damaged, permeable membranes of non-viable cells. Propidium iodide, a membrane impermeant dye, is generally excluded from viable cells, although it can enter non-viable cells and bind to double-stranded DNA by intercalating between base pairs. Compounds 1-5 were tested for their cytotoxicity in FRDA lymphocytes using FACS analysis with propidium iodide. The results are depicted in FIG. 2. From the results it is evident that cytotoxicity decreases with increasing lipophilicity in lower as well as higher concentrations for compounds 1-5.
Evaluation of compounds 1-5 for their cytotoxicity and their ability to function within the mitochondrial respiratory chain was carried out by incubation of the prepared compounds for 24 or 48 h with FRDA lymphocytes. A nutrient-sensitized screening strategy has been used by culturing FRDA cells in galactose as the sole sugar source which forces mammalian cells to rely on mitochondrial oxidative phosphorylation (OXPHOS) to produce their ATP; they also become more sensitive to mitochondrial respiratory chain inhibitors than cells grown in glucose medium. Compounds 1-5 were tested for their cytotoxicity in FRDA lymphocytes using a simultaneous staining with a two-color fluorescence assay, the Live/Dead® Viability/Cytotoxicity Kit (Molecular Probes). This assay is used to measure two recognized parameters of cell viability, intracellular esterase activity and plasma integrity. The membrane-impermeant DNA dye ethidium homodimer-1 (EthD-1) was used to identify dead cells whose plasma membrane integrity was disrupted. The membrane-permeant dye calcein-AM was used to label live cells. It penetrates into the cells where it is metabolized by cytoplasmic esterases and becomes a fluorescent but membrane-impermeant probe which is retained in viable cells. One mL of FRDA lymphocyte cells (5×10^5 cells) was plated in a 24-well plate in glucose free media (galactose 25 mM), treated with the test compounds and incubated at 37° C. for 24 h or 48 h in a humidified atmosphere containing 5% CO2 in air. Cells were collected by centrifugation at 300×g for 3 min and washed with phosphate buffered saline. […] The samples were analyzed immediately by flow cytometry (C6 Accuri, BD Biosciences, San Jose, Calif.), using a 488 nm excitation laser and the and the FL1-H channel 530±15 nm emission filter and the FL2-H channel 585±15 nm. For each analysis 10,000 events were recorded and analyzed using C6 Accuri software (BD Biosciences).

FRDA lymphocytes [2] = test: Measurement of cellular ATP concentration (firefly luciferase); type: cell-based, human; details: glucose free media (25 mM galactose), relative to untreated control (FIG. 6)
Description: Results are expressed as percentage of total ATP relative to untreated control.
ATP levels in FRDA lymphocytes were measured using firefly luciferase. The cells were grown on glucose-free media supplemented with galactose for 24 h prior to the addition of the test compounds. Since cells grown in galactose rely mostly on oxidative phosphorylation (OX-PHOS) to produce their ATP, they become more sensitive to mitochondrial respiratory chain inhibitors than cells grown in glucose medium.
Measurement of Cellular ATP Concentration
Total ATP levels in FRDA lymphocytes with or without partially blocking complex I activity with rotenone (5 nM) were measured using firefly luciferase as a means to measure ATP level. The cells were grown on glucose-free media supplemented with galactose. Since cells grown in galactose rely mostly on oxidative phosphorylation (OXPHOS) to produce their ATP, they become more sensitive to mitochondria respiratory chain inhibitors than cells grown in glucose medium. Briefly, lymphocytes (2×10^5 cell/mL) were plated (1 mL) in 24-well plates, treated with the test compounds, and then incubated at 37° C. for 48 h in a humidified atmosphere containing 5% CO2 in air. FRDA lymphocytes with partial inhibition of complex I, cells were preincubated with test compounds for overnight before rotenone (5 nM) treatment for 24 h. Cells in each well were mixed and transferred (100 μL) to 96-well microtiter black-walled cell culture plates (Costar, Corning, N.Y.). The total intracellular ATP level was measured in a luminator (Clarity™ luminescence microplate reader) using an ATP Bioluminescence Assay Kit (ViaLight®-Plus ATP monitoring reagent kit, Lonza) following the manufacturer's protocol. The total ATP level was expressed as a percentage of untreated control. Data are reported as the mean of at least three independent experiments.

[3] = system: mitochondrial inner membrane potential in FRDA lymphocytes; test: JC-1 mitochondrial membrane potential (Δψm) assay; type: cell-based, human; details: 16 h pre-treatment, JC-1, FACS (FIG. 4)
Description: In each analysis, 10000 events were recorded. Depolarization with carbonyl cyanide p-(trifluoromethoxy) phenylhydrazone (FCCP), was used to serve as a positive control.
The ability of 1-5 to maintain mitochondrial membrane potential (ΔΨm) compared to the parent compound MV was studied. ΔΨm was determined using the cationic fluorescent dye 5, 5′, 6, 6′-tetrachloro-1, 1′, 3, 3′-tetraethylbenzimidazolyl carbocyanine iodide (JC-1), which is a lipophilic cation that selectively accumulates in mitochondria due to the negative potential across the inner mitochondrial membrane. The dye exists as a monomer at low concentrations giving a green fluorescence. […] Therefore, mitochondrial depolarization is indicated by a decrease in red/green fluorescence ratio. […]
The ability of the test compounds to depolarize or maintains mitochondrial inner membrane potential (Δψm) was assessed using the JC-1 probe. […] JC-1 is a dual stain, which can identify high membrane potential through J-aggregates (red fluorescence) and low membrane potential through J-monomers (green fluorescence). […] Cells were resuspended in phosphate buffered saline supplemented with 20 mM glucose and were analyzed immediately by FACS (C6 Accuri, BD Biosciences, San Jose, Calif.), using a 488 nm excitation laser and the FL1-H channel 530±15 nm emission filter and the FL2-H channel 585±15 nm. […]

[4] = system: FRDA lymphocytes treated with rotenone (complex I inhibition); test: Cytoprotection of rotenone-treated FRDA lymphocytes; type: cell-based, human; details: 12 h preincubation in glucose-free media, then rotenone (50 nM) 24 h or 48 h (FIG. 3)
[5] = system: FRDA lymphocyte cells (GM15850); test: Reactive oxygen species (ROS) assay, DCFH-DA, diethyl maleate-treated FRDA lymphocytes; type: cell-based, human; details: 16 h pretreatment, 5 mM diethyl maleate 80 min, DCFH-DA (FIG. 5)
Description: The ability of compounds 1-5 to suppress ROS induced by the depletion of cellular glutathione was evaluated in FRDA lymphocytes in a quantitative FACS experiment using dichlorofluorescein diacetate (DCFH-DA) as an indicator of intracellular ROS levels. In cells DCFH-DA is hydrolyzed by esterases to afford 2, 7-dichlorodihydrofluorescein (DCFH). The non-fluorescent DCFH can be oxidized by cellular oxidants generating fluorescent dichlorofluorescein (DCF).
Reactive Oxygen Species (ROS) Assay
Intracellular ROS production was measured in FRDA lymphocyte cells (GM15850, Coriell Cell Repositories, Camden, N.J.) using the oxidant sensitive fluorescent probe 2,7-dichlorodihydrofluorescein diacetate (DCFH-DA) (Molecular Probes) as described previously. […] The samples were analyzed immediately by flow cytometry (C6 Accuri, BD Biosciences, San Jose, Calif.), using a 488 nm excitation laser and the FL1-H channel 530±15 nm emission filter for DCF and FL2-H channel 585±15 nm emission filter for propidium iodide. The generation of ROS, mainly peroxides, was detected as a result of the oxidation of DCFH. In each analysis, 10,000 events were recorded after dead cell and debris were gated out. […] ROS production was evaluated only in living cells which are propidium iodide negative. […] Results were expressed as percentage of ROS scavenging activity or as percentage of the median fluorescence intensity of DCF.

[6] = system: FRDA fibroblasts (GM04078); test: Cytoprotection of BSO-treated FRDA fibroblasts, Live/Dead kit; type: cell-based, human; details: overnight preincubation, then BSO (5 mM) 48 h (FIG. 7)
Description: Results obtained were verified by running triplicates and repeating experiments in two independent runs.
The ability of test compounds 1-5 to confer cytoprotection to buthionine sulfoximine (BSO)-treated FRDA fibroblasts from oxidative damage-induced death was determined by using simultaneous staining with a two-color fluorescence assay, the Live/Dead® Viability/Cytotoxicity Kit (Molecular Probes, Eugene, Oreg.). The cells were subjected to L-buthionine (S,R)-sulfoximine, an inhibitor of de novo glutathione (GSH) biosynthesis. Oxidative damage-induced death of FRDA fibroblasts was blocked by the test compounds in a concentration dependent manner (FIG. 7). […] The optimal side chain length was 15 carbon atoms.
The ability of the test compounds to confer cytoprotection to BSO-treated FRDA fibroblasts was determined by assessing plasma membrane integrity and intracellular esterase activity using the LIVE/DEAD Viability/Cytotoxicity Kit for mammalian cells according to the manufacturer's protocol. Briefly, FRDA fibroblasts (GM04078) were plated in 96-well microtiter plates at a density of 3000 cell/well (50 μL) (Costar, Corning, N.Y.). The plates were incubated at 37° C. for 24 h in an atmosphere having 95% humidity and 5% CO2 to allow attachment of the cells to the culture plates and to allow the cell density reach 50-60% confluency. The next day the test compounds were dissolved in DMSO, diluted to the appropriate concentrations in fresh cell culture media and the cells were then treated with the test compounds (final DMSO concentration was <0.5%). Plates were incubated at 37° C. overnight in a humidified atmosphere containing 5% CO2 in air. […] Fluorescence intensities were measured with a Spectramax M5 spectrofluorometer (Molecular Devices, Sunnyvale, Calif.) using excitation and emission wavelengths of 485 nm and 525 nm, respectively. […] The viability of non-BSO treated fibroblasts was set as 100%, and the viability of the BSO treated and sample-treated cells was calculated relative to this value. Cell viability was expressed as the percentage of control.

Structure (SMILES)	cytotoxicity (FRDA lymphocytes [1])	cellular ATP levels (FRDA lymphocytes [2])	preservation of mitochondrial membrane potential (Δψm) [3]	cytoprotection against rotenone cytotoxicity [4]	suppression of ROS induced by depletion of cellular glutathione [5]	cytoprotection from oxidative damage-induced death [6]
CCCCN(CCCC)c1ccc2nc3ccc(=O)cc-3sc2c1 [Compound 1, 7-(N,N-Dibutylamino)-3H-phenothiazin-3-one]	somewhat cytotoxic	reduces cellular ATP levels in all concentrations	–	–	–	–
CCCCCCCCCCN(CCCCCCCCCC)c1ccc2nc3ccc(=O)cc-3sc2c1 [Compound 2, 7-(N,N-Didecylamino)-3H-phenothiazin-3-one]	somewhat cytotoxic	reduces cellular ATP levels in all concentrations	–	–	–	–
CN(C)c1ccc2nc3ccc(=O)cc-3sc2c1 [MV, Methylene violet, reference compound]	–	strongly reduces cellular ATP levels in a concentration dependent manner	significantly depolarized Δψm	–	–	–
CCCCCCCCCCCCCCCN(C)c1ccc2nc3ccc(=O)cc-3sc2c1 [Compound 4, 7-(N-Methyl-N-pentadecylamino)-3H-phenothiazin-3-one]	–	–	–	protect the cells against rotenone cytotoxicity more efficiently than the parent compound MV	more potent and effective in protecting FRDA lymphocytes than the parent compound MV	better potency than 1 or 2
CCCCCCCCCCCCCCCN(CCCC)c1ccc2nc3ccc(=O)cc-3sc2c1 [Compound 5, 7-(N-Butyl-N-pentadecylamino)-3H-phenothiazin-3-one]	–	–	–	protect the cells against rotenone cytotoxicity more efficiently than the parent compound MV	more potent and effective in protecting FRDA lymphocytes than the parent compound MV	better potency than 1 or 2
CCCCCCCCCCCCCCCN(CCCCCCCCCCCCCCC)c1ccc2nc3ccc(=O)cc-3sc2c1 [Compound 3, 7-(N,N-Dipentadecylamino)-3H-phenothiazin-3-one]	–	–	–	–	–	the least effective
